Counter-ions that a name gives are not always drawn. A value given as a limit tells only on which side of the number the result lay.

The record followed here is US8716303B2, “N-(hetero)aryl-pyrrolidine derivatives of pyrazol-4-yl-pyrrolo[2,3-d]pyrimidines and pyrrol-3-yl-pyrrolo[2,3-d]pyrimidines as janus kinase inhibitors” (Incyte Corporation, priority 2009, dated 2014).

For experiment [1], the target named is T1, Jak2 (a.a. 828-1132) (Homo sapiens, UniProt O60674).
T1 construct: Jak2 (a.a. 828-1132); His tag (N); made in house; host or cells: insect cells (baculovirus)
The experiment in a line: In vitro JAK kinase assay (HTRF, phosphorylation of a biotinylated peptide), JAK2, reported as JAK2/JAK1 ratio. In kind it is biochemical. Conditions: Assay Conditions 1 mM ATP.

Experiment [2] concerns the target T2, human JAK1 (a.a. 837-1142) (Homo sapiens, UniProt P23458).
T2 construct: human JAK1 (a.a. 837-1142); His tag (N); made in house; host or cells: insect cells (baculovirus)
The experiment in a line: In vitro JAK kinase assay (HTRF, phosphorylation of a biotinylated peptide), JAK1. In kind it is biochemical. As to conditions: Assay Conditions 1 mM ATP. Summed up: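 IC50s come from HTRF detection (Eu-Py20, SA-APC, 40 min binding) after 1 h RT reactions with 500 nM biotinylated peptide in Tris pH 7.8 buffer. ATP either 1 mM or Km-level, 90 μM for JAK1 and 30 μM for JAK2; enzymes are baculovirus-expressed His-tagged catalytic domains (JAK1 837-1142, JAK2 828-1132).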

T1 sequence (O60674 828-1132): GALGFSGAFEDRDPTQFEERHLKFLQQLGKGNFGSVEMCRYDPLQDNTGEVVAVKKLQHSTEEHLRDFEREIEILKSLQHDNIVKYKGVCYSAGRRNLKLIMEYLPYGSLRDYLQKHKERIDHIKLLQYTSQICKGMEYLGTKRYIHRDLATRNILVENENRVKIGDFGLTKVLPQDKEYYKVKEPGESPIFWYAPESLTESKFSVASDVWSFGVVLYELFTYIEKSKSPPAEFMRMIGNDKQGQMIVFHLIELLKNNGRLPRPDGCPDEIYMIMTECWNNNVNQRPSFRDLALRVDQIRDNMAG
T2 sequence (P23458 849-1154): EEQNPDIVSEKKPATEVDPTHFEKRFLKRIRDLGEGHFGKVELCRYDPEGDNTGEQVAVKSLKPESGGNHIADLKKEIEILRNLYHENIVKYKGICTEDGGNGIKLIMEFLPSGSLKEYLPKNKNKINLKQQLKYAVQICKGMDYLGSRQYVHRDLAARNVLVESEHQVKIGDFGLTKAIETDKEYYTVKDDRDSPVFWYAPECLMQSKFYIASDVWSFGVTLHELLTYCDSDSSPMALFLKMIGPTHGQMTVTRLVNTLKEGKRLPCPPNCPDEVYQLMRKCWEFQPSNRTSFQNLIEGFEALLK

Consider `N#CC[C@@H]([C@H]1CCN(c2ncc3sccc3c2C#N)C1)n1cc(-c2ncnc3[nH]ccc23)cn1` [Example 74, 5-((3S)-3-{(1S)-2-cyano-1-[4-(7H-pyrrolo[2,3-d]pyrimidin-4-yl)-1H-pyrazol-1-yl]ethyl}pyrrolidin-1-yl)thieno[2,3-c]pyridine-4-carbonitrile], for which the “JAK2/JAK1 IC50 ratio” value in experiment [1] is 6.2. Further, the IC50 in experiment [2] was less than 50 nM.

In the case of `N#CC[C@@H]([C@H]1CCN(c2nc3ccsc3cc2C#N)C1)n1cc(-c2ncnc3[nH]ccc23)cn1` [Example 75, 5-((3S)-3-{(1S)-2-cyano-1-[4-(7H-pyrrolo[2,3-d]pyrimidin-4-yl)-1H-pyrazol-1-yl]ethyl}pyrrolidin-1-yl)thieno[3,2-b]pyridine-6-carbonitrile], the “JAK2/JAK1 IC50 ratio” value in experiment [1] came out at 4.6. This compound came in with an IC50 in experiment [2] of less than 50 nM.

Regarding `N#CC[C@@H]([C@H]1CCN(c2scc(O)c2C#N)C1)n1cc(-c2ncnc3[nH]ccc23)cn1` [Example 76, 2-((3S)-3-{(1S)-2-cyano-1-[4-(7H-pyrrolo[2,3-d]pyrimidin-4-yl)-1H-pyrazol-1-yl]ethyl}pyrrolidin-1-yl)-4-hydroxythiophene-3-carbonitrile], in experiment [1], the “JAK2/JAK1 IC50 ratio” value came to 51.1. The compound further registered an IC50 in experiment [2] of less than 50 nM.

`N#CC[C@@H]([C@H]1CCN(c2scc(Br)c2C#N)C1)n1cc(-c2ncnc3[nH]ccc23)cn1` [Example 77, 4-bromo-2-((3S)-3-{(1S)-2-cyano-1-[4-(7H-pyrrolo[2,3-d]pyrimidin-4-yl)-1H-pyrazol-1-yl]ethyl}pyrrolidin-1-yl)thiophene-3-carbonitrile]: in experiment [1], the “JAK2/JAK1 IC50 ratio” value came to 39.1. In addition, the IC50 in experiment [2] was less than 50 nM.

`N#CC[C@@H]([C@H]1CCN(c2scc(Cl)c2C#N)C1)n1cc(-c2ncnc3[nH]ccc23)cn1` [Example 78, 4-chloro-2-((3S)-3-{(1S)-2-cyano-1-[4-(7H-pyrrolo[2,3-d]pyrimidin-4-yl)-1H-pyrazol-1-yl]ethyl}pyrrolidin-1-yl)thiophene-3-carbonitrile]: the “JAK2/JAK1 IC50 ratio” value in experiment [1] turned out to be 32.1. The IC50 in experiment [2] is less than 50 nM.

`N#CC[C@@H]([C@H]1CCN(c2scc(C#N)c2C#N)C1)n1cc(-c2ncnc3[nH]ccc23)cn1` [Example 79, 2-((3S)-3-{(1S)-2-cyano-1-[4-(7H-pyrrolo[2,3-d]pyrimidin-4-yl)-1H-pyrazol-1-yl]ethyl}pyrrolidin-1-yl)thiophene-3,4-dicarbonitrile]: the “JAK2/JAK1 IC50 ratio” value in experiment [1] came to 20.0. Moreover, the IC50 in experiment [2] was less than 50 nM.

As to `N#Cc1csc(N2CC[C@H](C(CF)n3cc(-c4ncnc5[nH]ccc45)cn3)C2)c1C#N` (stereo partly drawn) [Example 80, 2-((3S)-3-{2-fluoro-1-[4-(7H-pyrrolo[2,3-d]pyrimidin-4-yl)-1H-pyrazol-1-yl]ethyl}pyrrolidin-1-yl)thiophene-3,4-dicarbonitrile], the “JAK2/JAK1 IC50 ratio” value in experiment [1] is given as 12.1. In experiment [2], this compound had an IC50 of less than 50 nM.

In the case of `N#CC[C@@H]([C@H]1CCN(c2ncsc2C#N)C1)n1cc(-c2ncnc3[nH]ccc23)cn1` [Example 82, 4-(3-{2-cyano-1-[4-(7H-pyrrolo[2,3-d]pyrimidin-4-yl)-1H-pyrazol-1-yl]ethyl}pyrrolidin-1-yl)-1,3-thiazole-5-carbonitrile], the “JAK2/JAK1 IC50 ratio” value in experiment [1] turned out to be 6.7. Also, the IC50 in experiment [2] was less than 50 nM.

Take `N#CC[C@@H]([C@H]1CCN(c2ncncc2C#N)C1)n1cc(-c2ncnc3[nH]ccc23)cn1` [Example 84, 4-((S)-3-((S)-1-(4-(7H-pyrrolo[2,3-d]pyrimidin-4-yl)-1H-pyrazol-1-yl)-2-cyanoethyl)pyrrolidin-1-yl)pyrimidine-5-carbonitrile trifluoroacetate]: in experiment [1], the “JAK2/JAK1 IC50 ratio” value is 11.5. This compound returned an IC50 in experiment [2] of less than 50 nM.

Take `FCC([C@H]1CCN(c2nc3c(cc2F)CCS3)C1)n1cc(-c2ncnc3[nH]ccc23)cn1` (stereo partly drawn) [Example 85, 4-(1-{2-fluoro-1-[(3S)-1-(5-fluoro-2,3-dihydrothieno[2,3-b]pyridin-6-yl)pyrrolidin-3-yl]ethyl}-1H-pyrazol-4-yl)-7H-pyrrolo[2,3-d]pyrimidine bis(trifluoroacetate)]: in experiment [1], the “JAK2/JAK1 IC50 ratio” value turned out to be 5.3. Besides, the IC50 in experiment [2] was less than 50 nM.

For `O=S1(=O)CCc2cc(F)c(N3CC[C@H](C(CF)n4cc(-c5ncnc6[nH]ccc56)cn4)C3)nc21` (stereo partly drawn) [Example 86, 4-(1-{2-fluoro-1-[(3S)-1-(5-fluoro-1,1-dioxido-2,3-dihydrothieno[2,3-b]pyridin-6-yl)pyrrolidin-3-yl]ethyl}-1H-pyrazol-4-yl)-7H-pyrrolo[2,3-d]pyrimidine tetrakis(trifluoroacetate)], in experiment [1], the “JAK2/JAK1 IC50 ratio” value worked out at 13.0. The IC50 in experiment [2] was less than 50 nM.

On to `N#CC[C@@H]([C@H]1CCN(c2nc3c(cc2F)CCS3)C1)n1cc(-c2ncnc3[nH]ccc23)cn1` [Example 87, (3S)-3-[(3S)-1-(5-fluoro-2,3-dihydrothieno[2,3-b]pyridin-6-yl)pyrrolidin-3-yl]-3-[4-(7H-pyrrolo[2,3-d]pyrimidin-4-yl)-1H-pyrazol-1-yl]propanenitrile bis(trifluoroacetate)], for which, in experiment [1], the “JAK2/JAK1 IC50 ratio” value was found to be 8.1. This compound registered an IC50 in experiment [2] of less than 50 nM.

For `N#CC[C@@H]([C@H]1CCN(c2nc(Br)ccc2F)C1)n1cc(-c2ncnc3[nH]ccc23)cn1.O=C(O)C(F)(F)F.O=C(O)C(F)(F)F` [Example 88, (3S)-3-[(3S)-1-(6-bromo-3-fluoropyridin-2-yl)pyrrolidin-3-yl]-3-[4-(7H-pyrrolo[2,3-d]pyrimidin-4-yl)-1H-pyrazol-1-yl]propanenitrile bis(trifluoroacetate)], the “JAK2/JAK1 IC50 ratio” value in experiment [1] came out at 40.0. The compound further returned an IC50 in experiment [2] of less than 50 nM.

Regarding `N#CC[C@@H]([C@H]1CCN(c2ccc(F)c(F)n2)C1)n1cc(-c2ncnc3[nH]ccc23)cn1.O=C(O)C(F)(F)F` [Example 89, (3S)-3-[(3S)-1-(5,6-difluoropyridin-2-yl)pyrrolidin-3-yl]-3-[4-(7H-pyrrolo[2,3-d]pyrimidin-4-yl)-1H-pyrazol-1-yl]propanenitrile trifluoroacetate], the “JAK2/JAK1 IC50 ratio” value in experiment [1] is recorded as 3.1. This compound also displayed an IC50 in experiment [2] of less than 50 nM.

With `N#CC[C@@H]([C@H]1CCN(c2nc(Cl)c(CO)cc2F)C1)n1cc(-c2ncnc3[nH]ccc23)cn1` [Example 90, (3S)-3-{(3S)-1-[6-chloro-3-fluoro-5-(hydroxymethyl)pyridin-2-yl]pyrrolidin-3-yl}-3-[4-(7H-pyrrolo[2,3-d]pyrimidin-4-yl)-1H-pyrazol-1-yl]propanenitrile trifluoroacetate], in experiment [1], the “JAK2/JAK1 IC50 ratio” value was determined as 4.3. Further, the IC50 in experiment [2] is less than 50 nM.

For the compound `N#CC[C@@H]([C@H]1CCN(c2nc(Cl)c(N)cc2F)C1)n1cc(-c2ncnc3[nH]ccc23)cn1` [Example 91A, (S)-3-(4-(7H-pyrrolo[2,3-d]pyrimidin-4-yl)-1H-pyrazol-1-yl)-3-((S)-1-(5-amino-6-chloro-3-fluoropyridin-2-yl)pyrrolidin-3-yl)propanenitrile bis(trifluoroacetate)], the “JAK2/JAK1 IC50 ratio” value in experiment [1] turned out to be 6.9. In addition, the IC50 in experiment [2] is less than 50 nM.

Regarding `N#CC[C@@H]([C@H]1CCN(c2nc(Cl)c(F)cc2N)C1)n1cc(-c2ncnc3[nH]ccc23)cn1.O=C(O)C(F)(F)F.O=C(O)C(F)(F)F` [Example 91B, (3S)-3-[(3S)-1-(3-amino-6-chloro-5-fluoropyridin-2-yl)pyrrolidin-3-yl]-3-[4-(7H-pyrrolo[2,3-d]pyrimidin-4-yl)-1H-pyrazol-1-yl]propanenitrile bis(trifluoroacetate)], the “JAK2/JAK1 IC50 ratio” value in experiment [1] was 7.0. The compound further displayed an IC50 in experiment [2] of less than 50 nM.

As to `CCS(=O)(=O)c1ccc(F)c(N2CC[C@H]([C@H](CC#N)n3cc(-c4ncnc5[nH]ccc45)cn3)C2)n1` [Example 93, (3S)-3-{(3S)-1-[6-(ethylsulfonyl)-3-fluoropyridin-2-yl]pyrrolidin-3-yl}-3-[4-(7H-pyrrolo[2,3-d]pyrimidin-4-yl)-1H-pyrazol-1-yl]propanenitrile trifluoroacetate], the “JAK2/JAK1 IC50 ratio” value in experiment [1] is recorded as 5.3. In experiment [2], the IC50 is less than 50 nM.

For the compound `N#CC[C@@H]([C@H]1CCN(c2nc(Cl)ccc2F)C1)n1cc(-c2ncnc3[nH]ccc23)cn1` [Example 94, (3S)-3-[(3S)-1-(6-chloro-3-fluoropyridin-2-yl)pyrrolidin-3-yl]-3-[4-(7H-pyrrolo[2,3-d]pyrimidin-4-yl)-1H-pyrazol-1-yl]propanenitrile trifluoroacetate], the “JAK2/JAK1 IC50 ratio” value in experiment [1] is 17.9. Also, the IC50 in experiment [2] was less than 50 nM.

As for `COCc1c(F)cnc(N2CC[C@H]([C@H](CC#N)n3cc(-c4ncnc5[nH]ccc45)cn3)C2)c1C#N` [Example 95, 2-((3S)-3-{(1S)-2-cyano-1-[4-(7H-pyrrolo[2,3-d]pyrimidin-4-yl)-1H-pyrazol-1-yl]ethyl}pyrrolidin-1-yl)-5-fluoro-4-(methoxymethyl)nicotinonitrile bis(trifluoroacetate)], the “JAK2/JAK1 IC50 ratio” value in experiment [1] is reported as 16.4. This compound had an IC50 in experiment [2] of less than 50 nM.

Turning to `COCc1ccnc(N2CC[C@H]([C@H](CC#N)n3cc(-c4ncnc5[nH]ccc45)cn3)C2)c1C#N` [Example 96, 2-((3S)-3-{(1S)-2-cyano-1-[4-(7H-pyrrolo[2,3-d]pyrimidin-4-yl)-1H-pyrazol-1-yl]ethyl}pyrrolidin-1-yl)-4-(methoxymethyl)nicotinonitrile tris(trifluoroacetate)], the “JAK2/JAK1 IC50 ratio” value in experiment [1] turned out to be 16.3. The compound also came in with an IC50 in experiment [2] of less than 50 nM.

Take `COc1ncnc(N2CC[C@H]([C@H](CC#N)n3cc(-c4ncnc5[nH]ccc45)cn3)C2)c1C#N` [Example 98, 4-((S)-3-((S)-1-(4-(7H-pyrrolo[2,3-d]pyrimidin-4-yl)-1H-pyrazol-1-yl) 2-cyanoethyl)pyrrolidin-1-yl)-6-methoxypyrimidine-5-carbonitrile trifluoroacetate]: the “JAK2/JAK1 IC50 ratio” value in experiment [1] is more than 9.1. The IC50 in experiment [2] was less than 50 nM.
